Tested on: 2F5 mAb
Assay: SPR assay with liposome-anchored peptides
Type: binding
Conditions: 10 seconds after the injection was stopped; peptide anchored to liposomes

| Substance | binding response (background subtracted) |
| --- | --- |
| QQEKNEQELLELDKWASLWNYKRWIILGLNKIVRMYS-biotin [consensus 2F5 epitope] | 494.6 response unit |
| QQEKNEQELLELDKWASSWNYKRWIILGLNKIVRMYS-biotin | 616.7 response unit |
